Settings: instrument: TW, calibrated with polyalanine and drug standards

SMILES | collision cross section (N2) ([M+H]+) [Å²] | collision cross section (N2) ([M+Na]+) [Å²]
C#C[C@]1(O)CC[C@H]2[C@@H]3CCC4=CC(=O)CC[C@@H]4[C@H]3CC[C@@]21CC [NORGESTREL] | 178.6 | –
CNCCC=C1c2ccccc2CCc2ccccc21 [NORTRIPTYLINE] | 163.1 | –
C=C(C)[C@H]1COc2cc3oc(=O)ccc3cc2O1 [OBLIQUIN] | 150.1 | –
COc1cc2c(cc1-c1cc3cc4ccoc4cc3oc1=O)OCO2 [PACHYRRHIZIN] | 170.7 | –
Oc1ccc(Cl)cc1 [PARACHLOROPHENOL] | 108.8 | –
OC1(c2ccc(Cl)c(C(F)(F)F)c2)CCN(CCCC(c2ccc(F)cc2)c2ccc(F)cc2)CC1 [PENFLURIDOL] | 219.1 | –
C1CCc2nnnn2CC1 [PENTYLENETETRAZOL] | 124.5 | –
O=C1OC(c2ccc(O)cc2)(c2ccc(O)cc2)c2ccccc21 [PHENOLPHTHALEIN] | 172.1 | –
CC(C)=CC1C(C(=O)OCc2cccc(Oc3ccccc3)c2)C1(C)C (configuration not stated) [PHENOTHRIN] | 187.5 | –
CC(C)(O)[C@@H]1[C@H]2OC(=O)[C@@H]1[C@]1(O)C[C@H]3O[C@]34C(=O)O[C@H]2[C@]14C [PICROTIN] | – | 173.7
C=C(C)[C@@H]1[C@H]2OC(=O)[C@@H]1[C@]1(O)C[C@H]3O[C@]34C(=O)O[C@H]2[C@]14C [PICROTOXININ] | – | 168.7
O=C(O)/C=C/C=C/c1ccc2c(c1)OCO2 [PIPERIC ACID] | 138.6 | –
O=C(/C=C/C=C/c1ccc2c(c1)OCO2)N1CCCCC1 [PIPERINE] | 171.4 | –
CCC1(c2ccccc2)C(=O)NCNC1=O [PRIMIDONE] | 146.9 | –
CCCc1cc(=O)[nH]c(=S)[nH]1 [PROPYLTHIOURACIL] | 134.7 | –
CC[C@@H](C)C(=O)O[C@H]1[C@H](O)[C@H]2[C@@H](CN3C[C@@H](C)CC[C@H]3[C@@]2(C)O)[C@@H]2C[C@]34O[C@]5(O)[C@@H](OC(=O)[C@@](C)(O)CC)CC[C@@]3(C)[C@@H]5[C@@H](OC(C)=O)[C@@H](OC(C)=O)[C@H]4[C@@]21O [PROTOVERATRINE A] | 285.2 | –
CC[C@@H](C)C(=O)O[C@H]1[C@H](O)[C@H]2[C@@H](CN3C[C@@H](C)CC[C@H]3[C@@]2(C)O)[C@@H]2C[C@]34O[C@]5(O)[C@@H](OC(=O)[C@](C)(O)[C@@H](C)O)CC[C@@]3(C)[C@@H]5[C@@H](OC(C)=O)[C@@H](OC(C)=O)[C@H]4[C@@]21O [PROTOVERATRINE B] | 287 | –
COc1ccc(/C=C/c2cc(O)cc(O)c2)cc1 [RESVERATROL 4'-METHYL ETHER] | 157.3 | –
CO[C@H]1/C=C/O[C@@]2(C)Oc3c(C)c(O)c4c(O)c(c5c(nc6cc(C)ccn65)c4c3C2=O)NC(=O)/C(C)=C\C=C\[C@H](C)[C@H](O)[C@@H](C)[C@@H](O)[C@@H](C)[C@H](OC(C)=O)[C@@H]1C [RIFAXIMIN] | 267.8 | –
CCCCCCCCCCCC[C@@H](C(=O)O)[C@H](C)C(=O)O [ROCCELLIC ACID] | – | 186.2
C=C(C)[C@H]1Cc2c(ccc3c2O[C@@H]2COc4cc(OC)c(OC)cc4[C@@H]2C3=O)O1 [ROTENONE] | 193.2 | –
O=[N+]([O-])c1cc([As](=O)(O)O)ccc1O [ROXARSONE] | 145.5 | –
COc1cc2c(cc1OC)C(C)NCC2 (configuration not stated) [SALSOLIDINE] | 150.9 | –
C[C@@H]1CC[C@@]2(NC1)O[C@H]1C[C@H]3[C@@H]4CC=C5C[C@@H](O)CC[C@]5(C)[C@H]4CC[C@]3(C)[C@H]1[C@@H]2C [SOLASODINE] | 207.8 | –
C[C@]12CC[C@H]3[C@@H](CC[C@]4(O)C[C@@H](O)CC[C@]34C=O)[C@@]1(O)CC[C@@H]2C1=CC(=O)OC1 [STROPHANTHIDIN] | 196.7 | –
OC[C@H]1O[C@H](O[C@]2(CCl)O[C@H](CCl)[C@@H](O)[C@@H]2O)[C@H](O)[C@@H](O)[C@H]1Cl [SUCRALOSE] | – | 177.2
CC(=O)NS(=O)(=O)c1ccc(N)cc1 [SULFACETAMIDE] | 146.9 | –
Nc1ccc(S(=O)(=O)Nc2nccs2)cc1 [SULFATHIAZOLE] | 150.8 | –
O=C1C(CCS(=O)c2ccccc2)C(=O)N(c2ccccc2)N1c1ccccc1 (configuration not stated) [SULFINPYRAZONE] | 193.5 | –

Further lines, with some results ahead:

collision cross section (N2) ([M+H]+) [Å²] | SMILES | collision cross section (N2) ([M+Na]+) [Å²]
197.6 | C#C[C@]1(OC(C)=O)CC[C@H]2[C@@H]3CCC4=C/C(=N/O)CC[C@@H]4[C@H]3CC[C@@]21CC [NORGESTIMATE] | –
157.4 | COc1ccc(CC(=O)c2ccc(O)cc2O)cc1 [ONONETIN] | –
152.6 | CN1CCCN=C1/C=C/c1cccc(O)c1 [OXANTEL] | –
213.7 | CN(C(=O)CN(CCO)CC(=O)N(C)C(C)(C)Cc1ccccc1)C(C)(C)Cc1ccccc1 [OXETHAZAINE] | –
183.4 | COc1ccnc(CS(=O)c2nc3ccc(OC(F)F)cc3[nH]2)c1OC (configuration not stated) [PANTOPRAZOLE] | –
140.5 | CCOc1ccc(NC(C)=O)cc1 [PHENACETIN] | –
163.4 | Nc1ccc(C(=O)Oc2ccccc2)c(O)c1 [PHENYL AMINOSALICYLATE] | –
172.4 | CCCCC1C(=O)N(c2ccccc2)N(c2ccccc2)C1=O [PHENYLBUTAZONE] | –
146.4 | COc1c(OC)c2occc2c2oc(=O)ccc12 [PIMPINELLIN] | –
165.2 | CC(N=C(NC#N)Nc1ccncc1)C(C)(C)C (configuration not stated) [PINACIDIL] | –
161.1 | CCn1cc(C(=O)O)c(=O)c2cnc(N3CCCC3)nc21 [PIROMIDIC ACID] | –
170.7 | CN1C(C(=O)Nc2ccccn2)=C(O)c2ccccc2S1(=O)=O [PIROXICAM] | –
255.6 | CC(C)c1c(O)c(-c2cc3c(c(C(C)C)c2O)CCC2C(C)(C)CCC[C@]32C)cc2c1CCC1C(C)(C)CCC[C@]21C (some centres not stated) [PODOTOTARIN] | –
205.8 | CC(C)=CCc1c2c(c3occ(-c4ccc(O)c(O)c4)c(=O)c3c1O)C=CC(C)(C)O2 [POMIFERIN] | –
194 | CC(=O)OCC(=O)[C@@]1(O)CC[C@H]2[C@@H]3CCC4=CC(=O)C=C[C@]4(C)[C@H]3[C@@H](O)C[C@@]21C [PREDNISOLONE ACETATE] | –
181.8 | C[C@]12C=CC(=O)C=C1CC[C@@H]1[C@@H]2C(=O)C[C@@]2(C)[C@H]1CC[C@]2(O)C(=O)CO [PREDNISONE] | –
168.3 | CCCn1cnc2c1c(=O)n(CCCCC(C)=O)c(=O)n2C [PROPENTOFYLLINE] | –

collision cross section (N2) ([M+H]+) [Å²] | SMILES | collision cross section (N2) ([M+Na]+) [Å²]
141.3 | CCCc1cc(C(N)=S)ccn1 [PROTIONAMIDE] | –
155.8 | CCc1nc(N)nc(N)c1-c1ccc(Cl)cc1 [PYRIMETHAMINE] | –
173.4 | Cc1ncc(CSSCc2cnc(C)c(O)c2CO)c(CO)c1O [PYRITINOL] | –
163.4 | O=c1c(O)c(-c2ccc(O)c(O)c2)oc2cc(O)cc(O)c12 [QUERCETIN] | –
130.2 | O=C(O)c1cccnc1C(=O)O [QUINOLINIC ACID] | –
156.5 | Cc1c(NC(C)C)c(=O)n(-c2ccccc2)n1C [RAMIFENAZONE] | –
205.2 | COc1ccccc1OCC(O)CN1CCN(CC(=O)Nc2c(C)cccc2C)CC1 (configuration not stated) [RANOLAZINE] | –
247.3 | COC(=O)[C@H]1[C@H]2C[C@@H]3c4[nH]c5cc(OC)ccc5c4CCN3C[C@H]2C[C@@H](OC(=O)c2cc(OC)c(OC)c(OC)c2)[C@@H]1OC [RESERPINE] | –
164.1 | COc1ccc(-c2coc3c(O)c(OC)ccc3c2=O)cc1 [RETUSIN 7-METHYL ETHER] | –
180.8 | COc1cc(O)c2c(=O)c(OC)c(-c3ccc(OC)c(OC)c3)oc2c1 [RETUSIN] | –
231.9 | C[C@@H]1O[C@@H](O[C@H]2[C@H](Oc3cc(O)c4c(=O)cc(-c5ccc(O)cc5)oc4c3)O[C@H](CO)[C@@H](O)[C@@H]2O)[C@H](O)[C@H](O)[C@H]1O [RHOIFOLIN] | –
172.6 | CN(CCOc1ccc(CC2SC(=O)NC2=O)cc1)c1ccccn1 (configuration not stated) [ROSIGLITAZONE] | –
151.3 | O=C(Oc1ccccc1C(=O)O)c1ccccc1O [SALSALATE] | –
317 | CO[C@@H]1[C@@H](OC2OC(C)C(OC3CC(C)(O)C(O)C(C)O3)C(N(C)C)C2O)[C@@H](CC=O)C[C@@H](C)[C@@H](OC2CCC(N(C)C)C(C)O2)/C=C/C=C/C[C@@H](C)OC(=O)C[C@H]1O (some centres not stated) [SPIRAMYCIN] | –
161.7 | Cc1cc(C)nc(NS(=O)(=O)c2ccc(N)cc2)n1 [SULFAMETHAZINE] | –
159.1 | Cc1noc(NS(=O)(=O)c2ccc(N)cc2)c1C [SULFISOXAZOLE] | –

Reference: the C3SDB collision cross section collection
